Results published in patent US12410220B2, “Modulation of mammalian cell lineage by synthetic immodulins” (priority 2021, dated 2025).
Marks after values point to notes of the source that are not given here. Square brackets hold non-standard residues; d marks the D form. Ends that are not written are not given here. Peptide text beside a SMILES is read from it. * marks the point of attachment. Pentanoyl(2-Pr) = CCCC(CCC)C(=O)*; Decanoyl = CCCCCCCCCC(=O)*

Legend:
[1] = tested on: HFF-1 human fibroblast cell line; experiment: Collagen-1 ELISA in HFF-1 dermal fibroblasts; format: cell-based; conditions: peptide 2 uM, 72 hour incubation
Description: Immodulin peptides have potential untility in the field of cosmetics. HFF-1 human fibroblast cell line was obtained from the American Type Culture Collection (ATCC). Cells were grown in a T-75 flask in DMEM Medium containing 10% fetal bovine serum and penicillin-streptomycin at 37° C. in a humidified, 5% CO2 incubator. Cells (100 µl, 2,000 cells/well) were plated in a 96-well plate and incubated overnight at 37° C. in a humidified, 5% CO2 incubator. Next day, 10 µl/well of compounds were added (quadruplicate wells). After 72 hour incubation with the compound, supernatants were collected for Collagen-1 ELISA assay and cell viability was measured in a luminometer after the addition of 100 IL/well CellTiterGlo reagent (Promega Inc, Madison, WI) as recommended by the manufacturer. Collagen stimulating activity of immodulin peptides in HFF-1 dermal fibroblasts: Peptides were added to cells at 2 uM. COL1 immunoreactivity was measured in the supernatants of cultured cells by ELISA using a rabbit monoclonal anti-COL1 primary antibody (Abcam, Cambridge, MA). Control (buffer) value of immunoreactivity was set to 100.

[2] = Ferric iron-binding assay of biotinylated immodulin peptides; conditions: N-terminally biotinylated peptide, 400 ng per well, 60 min room temperature; immX3AVD = 100
From the text: N-terminally biotinylated versions of the peptides listed below were used in ferric iron-binding assays involving either an Alexa488-labeled streptavidin protocol (Binding Assay 1) or FITC-NTA assay (Binding Assay 2). Fluorescence was standardized to binding with immX3AVD control peptide (100) and the average of multiple experiments using both protocols is shown. P values are shown relative to the control immX3AVD peptide (**<0.05). D-amino acid residues are underlined in the sequences and the extension tripeptide of immX peptides is shown in bold font. Binding Assay 1 was done as follows: NTA coated 96-well plates (G-Biosciences, St. Louis, MO) were charged with ferric chloride and contacted with equimolar biotinylated peptide: streptavidin-A488 complex (400 ng peptide per well) for 60 min at room temperature, washed with phosphate-buffered saline (PBS) and read at 525 nm in a fluorescence counter. Binding Assay 2 was done as follows: Streptavidin coated 96-well plates (G-Biosciences, St. Louis, MO) were contacted with 400 ng peptide per well in PBS buffer for 60 minutes at room temperature, washed in PBS, then contacted with FITC-NTA (TRC, Toronto, Canada) complexed with equimolar ferric chloride (10× molar equivalent per well) for 60 min at room temperature, washed with PBS and read at 525 nm in a fluorescence counter.

[3] = Experiment 4D binding to FITC-labelled hyaluronic acid; conditions: biotinylated peptide 1 ug/well; 1 ug FITC-labelled hyaluronic acid, 90 minutes
Description: (§1) Streptavidin-coated 96-well plates (G-Biosciences, St. Louis, MO) were pre-treated with biotinylated peptides [see Example 1 for key] at 1 ug/well, at room temperature for 60 minutes. The plate was washed with PBS buffer and then 1 ug FITC-labelled heparin or hyaluronic acid in 100 uL PBS buffer was added per well (all tests in quadruplicate). Incubation proceeded for 90 minutes at room temperature, followed by two PBS washes. The plate was read in a standard laboratory fluorometer (488/525 nm exitation/[…]) and the counts normalized for immX3 peptide binding=100. Values statistically above background are shown in bold font. **p<0.05 versus immX3AVD.

[4] = Experiment 4D binding to FITC-labelled heparin; conditions: biotinylated peptide 1 ug/well; 1 ug FITC-labelled heparin, 90 minutes
Description: as §1

[5] = tested on: rat scald-endotoxemia model; experiment: Experiment 5B rat scald-endotoxemia model; format: in vivo, Sprague Dawley rats
Description: Experiment 5B. This study explores the effect of immX extensions on sV-nephrilin (SEQ ID NO:31) vs V-nephrilin, as well as in a longer peptide also containing the immX extension (Traumatin-3N1A: SEQ ID NO:35) on in vivo efficacy in a rat scald-endotoxemia model. Animals were treated with peptides using a widely used protocol previously described (see, for example, U.S. Pat. No. 10,369,191). Adult Sprague Dawley rats of both sexes (250-300 gm, Charles River Laboratories, Wilmington, MA, USA) were injected with peptide plus equimolar ferric iron once daily by subcutaneous bolus injection, days 1-7; Treatment group sizes were (n=6): group S=sham-treated; group B=burn+vehicle; group V=burn+1 mg/kg V-nephrilin (V); group sV=burn+1 mg/kg sV-nephrilin (immX3N1sV); group T=burn+1 mg/kg Traumatin-3N1A. The first dose was administered after completion of the scald procedure. Injection volume was 400 uL. Control animals received the same volume of vehicle. On Day 8, animals received a single intraperitoneal injection of 2.5 mg/kg lipopolysaccharide (LPS; Sigma Cat #L-2880) and animals were then monitored by oximeter (MouseOx, Starr Life Sciences) for 4 hours, when respiratory distress (breath distension*breaths/min) was assessed relative to baseline. This was followed by sacrifice and tissue collection as in the published protocol, except that bronchoalveolar lavage (BAL) was collected and cells were recovered from BAL by centrifugation. These cells were stained with fluorescently-labeled antibodies for flow cytometry in order to ascertain granulocyte counts, as shown below. Results of the peptide comparison are presented in the table below. *p<0.05 vs “B” control. #p<0.05 vs “V” group.

[6] = Day 1, burn + 1 mg/kg peptide plus equimolar ferric iron, subcutaneous once daily
[7] = Day 8, after LPS, burn + 1 mg/kg peptide days 1-7

Molecule: CCCCCCCCCC(=O)N[C@@H](CCCCN)C(=O)N[C@@H](CCCCN)C(=O)NCC(=O)N[C@@H](Cc1ccccc1)C(=O)N[C@@H](Cc1ccc(O)cc1)C(=O)N[C@@H](CCCCN)C(=O)N[C@@H](CCCCN)C(=O)N[C@@H](CCCCN)C(=O)N[C@@H](CCC(N)=O)C(=O)N[C@@H](CS)C(=O)N[C@@H](CCCNC(=N)N)C(=O)N1CCC[C@H]1C(=O)N[C@@H](CO)C(=O)N[C@@H](CCCCN)C(=O)NCC(=O)N[C@@H](CCCNC(=N)N)C(=O)N[C@@H](CCCCN)C(=O)N[C@@H](CCCNC(=N)N)C(=O)NCC(=O)N[C@@H](Cc1ccccc1)C(=O)N[C@@H](CS)C(=O)N[C@@H](Cc1c[nH]c2ccccc12)C(=O)O [imm3dec] (Decanoyl-KKGFYKKKQCRPSKGRKRGFCW-OH; C-terminus assumed)
- COL1 immunoreactivity in supernatants, control (buffer) set to 100 [1]: 114

Molecule: CCCC(CCC)C(=O)N[C@@H](CCCCN)C(=O)N[C@@H](CCCCN)C(=O)NCC(=O)N[C@@H](Cc1ccccc1)C(=O)N[C@@H](Cc1ccc(O)cc1)C(=O)N[C@@H](CCCCN)C(=O)N[C@@H](CCCCN)C(=O)N[C@@H](CCCCN)C(=O)N[C@@H](CCC(N)=O)C(=O)N[C@@H](CS)C(=O)N[C@@H](CCCNC(=N)N)C(=O)N1CCC[C@H]1C(=O)N[C@@H](CO)C(=O)N[C@@H](CCCCN)C(=O)NCC(=O)N[C@@H](CCCNC(=N)N)C(=O)N[C@@H](CCCCN)C(=O)N[C@@H](CCCNC(=N)N)C(=O)NCC(=O)N[C@@H](Cc1ccccc1)C(=O)N[C@@H](CS)C(=O)N[C@@H](Cc1c[nH]c2ccccc12)C(=O)O [imm3vlp] ({Pentanoyl(2-Pr)}-KKGFYKKKQCRPSKGRKRGFCW-OH; C-terminus assumed)
- COL1 immunoreactivity in supernatants, control (buffer) set to 100 [1]: 157**

Molecule: CC(C)[C@H](NC(=O)[C@H](Cc1ccccc1)NC(=O)[C@H](Cc1c[nH]c2ccccc12)NC(=O)[C@H](CS)NC(=O)[C@H](Cc1ccccc1)NC(=O)CNC(=O)[C@H](CCCNC(=N)N)NC(=O)[C@H](CCCCN)NC(=O)[C@H](CCCNC(=N)N)NC(=O)CNC(=O)[C@H](CCCCN)NC(=O)[C@H](CO)NC(=O)[C@@H]1CCCN1C(=O)[C@H](CCCNC(=N)N)NC(=O)[C@H](CS)NC(=O)[C@H](CCC(N)=O)NC(=O)[C@H](CCCCN)NC(=O)[C@H](CCCCN)NC(=O)[C@H](CCCCN)NC(=O)[C@H](Cc1ccc(O)cc1)NC(=O)[C@H](Cc1ccccc1)NC(=O)CNC(=O)[C@H](CCCCN)NC(=O)[C@@H](N)CCCCN)C(=O)N[C@@H](CO)C(=O)O [immX3FVS] (H-KKGFYKKKQCRPSKGRKRGFCWFVS-OH; N-terminus and C-terminus assumed)
- Ferric iron binding, fluorescence standardized to immX3AVD control peptide (100), Avg ± SD [2]: 78.3 ± 6.5**

Molecule: (bex)-KKGFYKKKQCRPSKGRKRGFCW (not fully specified (N-terminus); printed as (bex)-KKGFYKKKQCRPSKGRKRGFCW; cysteine pairing not given here) [imm3bex]
- COL1 immunoreactivity in supernatants, control (buffer) set to 100 [1]: 102

Molecule: (cin)-KKGFYKKKQCRPSKGRKRGFCW ({cinnamic acid}-KKGFYKKKQCRPSKGRKRGFCW; cysteine pairing not given here) [imm3cin, imm3 N-terminally conjugated with cinnamic acid]
- COL1 immunoreactivity in supernatants, control (buffer) set to 100 [1]: 106

Molecule: (isf)-KKGFYKKKQCRPSKGRKRGFCW ({isoferulic acid}-KKGFYKKKQCRPSKGRKRGFCW; cysteine pairing not given here) [imm3isf, imm3 N-terminally conjugated with isoferulic acid]
- COL1 immunoreactivity in supernatants, control (buffer) set to 100 [1]: 131*

Molecule: (rhn)-KKGFYKKKQCRPSKGRKRGFCW (rhein-KKGFYKKKQCRPSKGRKRGFCW; cysteine pairing not given here) [imm3rhn, imm3 N-terminally conjugated with rhein]
- COL1 immunoreactivity in supernatants, control (buffer) set to 100 [1]: 68**

Molecule: AFNSYELGSKGFYKKKQCRPSKGRKRGFCW [imm3K9]
- COL1 immunoreactivity in supernatants, control (buffer) set to 100 [1]: 155**

Molecule: AFNSYELGSKGFYKKKQCRPSKGRKRGFCWAVDKY [imm3K9c]
- COL1 immunoreactivity in supernatants, control (buffer) set to 100 [1]: 158**

Molecule: AFNSYELGSKKGFYKKKQCRPSKGRKRGFCW [imm3K9.1]
- COL1 immunoreactivity in supernatants, control (buffer) set to 100 [1]: 156**

Molecule: FNSYELGSLKKGFYKKKQCRPSKGRKRGFCW [imm3K8]
- COL1 immunoreactivity in supernatants, control (buffer) set to 100 [1]: 98

Molecule: KKGFYKKKQCRPSKGRKRGFCW(dS)(dV)(dD) (KKGFYKKKQCRPSKGRKRGFCW[dS][dV][dD]; cysteine pairing not given here) [immX3dSdVdD]
- Ferric iron binding, fluorescence standardized to immX3AVD control peptide (100), Avg ± SD [2]: 133.6±

Molecule: KKGFYKKKQCRPSKGRKRGFCW[dA]VD (cysteine pairing not given here) [immX3dAVD]
- Ferric iron binding, fluorescence standardized to immX3AVD control peptide (100), Avg ± SD [2]: 108.1 ± 1.5

Molecule: KKGFYKKKQCRPSKGRKRGFCW[dA][dV][dD] (cysteine pairing not given here) [immX3dAdVdD]
- Ferric iron binding, fluorescence standardized to immX3AVD control peptide (100), Avg ± SD [2]: 102.4 ± 9.1
- Hyaluronate binding, counts normalized for immX3 peptide binding=100 [3]: 104.2 ± 14.7
- Heparin binding, counts normalized for immX3 peptide binding=100 [4]: 55.5 ± 5.7**

Molecule: RKGFYKRKQCKPSRGRKRGICWAVD [immX5AVD]
- Ferric iron binding, fluorescence standardized to immX3AVD control peptide (100), Avg ± SD [2]: 88.1 ± 14.2
- Hyaluronate binding, counts normalized for immX3 peptide binding=100 [3]: 113.9 ± 15.7
- Heparin binding, counts normalized for immX3 peptide binding=100 [4]: 68.7 ± 26.2

Molecule: RNGNFHPKQCHPALDGQRGKCWAVD [immX4AVD]
- Ferric iron binding, fluorescence standardized to immX3AVD control peptide (100), Avg ± SD [2]: 1.2 ± 1.3**
- Hyaluronate binding, counts normalized for immX3 peptide binding=100 [3]: 61.1 ± 34.1
- Heparin binding, counts normalized for immX3 peptide binding=100 [4]: 7.3 ± 17.1

Molecule: SLNPEWNETKGFYKKKQCRPSKGRKRGFCW[dA][dV][dD] (cysteine pairing not given here) [immX3K1dAdVdD]
- Ferric iron binding, fluorescence standardized to immX3AVD control peptide (100), Avg ± SD [2]: 108.2 ± 6.6
- Hyaluronate binding, counts normalized for immX3 peptide binding=100 [3]: 101.9 ± 16.4
- Heparin binding, counts normalized for immX3 peptide binding=100 [4]: 56.0 ± 7.3**

Molecule: Traumatin-3N1A: a longer peptide also containing the immX extension (SEQ ID NO:35) (RGVTEDYLRLETLVQKVVSPYLKGFYKKKQCRPSKGRKRGFCWAVD)
- Plasma IL-6 (pg/ml) [5, 6]: 22.5 ± 11*^ pg/ml
- Plasma albumin mg/ml (24 hr IR) [5, 6]: 7.6 ± 0.9* mg/ml
- Change in body weight (Pct vs Day 1) ([5]; Day 5, burn + 1 mg/kg peptide plus equimolar ferric iron, subcutaneous once daily): −5.3 ± 3.5* Pct
- Respiratory distress (Gp. “S” = 100) ([5]; Day 8, 4 hours after LPS, burn + 1 mg/kg peptide days 1-7): 197 ± 39*#
- Wet/dry lung weight (corrected for body weight) ([5]; Day 8, after LPS 2.5 mg/kg ip, burn + 1 mg/kg peptide days 1-7): 6.74 ± 0.61*
- BAL fluid IL1-beta (pg/ml) [5, 7]: 45.7 ± 24*# pg/ml
- Plasma OHDG (ng/ml) [5, 7]: 1.24 ± 0.4* ng/ml
- Plasma creatinine (mg/dL) [5, 7]: 0.64 ± 0.2* mg/dL
